The values that follow come from patent US20250213574A1, “THERAPEUTIC COMBINATIONS COMPRISING UBIQUITIN- SPECIFIC-PROCESSING PROTEASE 1 (USP1) INHIBITORS AND CHEMOTHERAPY AGENTS” (KSQ Therapeutics, Inc., priority 2022, published 2025).

SMILES strings stand for the structures. “And” between values parts separate entries of the source, which are not always exact repeats. Identical values can stand only once. Like-named read-outs stand apart in the source and are kept apart here. Some results are limits rather than exact numbers.

Format in all cases: cell-based
The test system of experiment [1] is 647V. The experiment can be described thus: Colony formation (CFU) assay, 647V. The note with it: bladder, CFU ~14 days, wells with DMSO or 300 nM Compound 1, read-out: Chemotherapy nM IC50s. Here is the method: (§1) In vitro experiments were conducted using the colony formation unit (CFU) assay on various cell lines. The CFU assay involved first establishing what cell plating density enabled the development of clearly interspersed colonies on a six-well plate when left to grow for around 14 days. […] At or around day 14 when clearly interspersed colonies were visible in the DMSO-treated wells, the cells were fixed and stained using 0.1% crystal violet in 10% ethanol for 20 minutes at room temperature. The plates were imaged then the amount of crystal violet stain in each well was quantified by extracting the crystal violet into 10% acetic acid and the absorbance measured at 565 nm.
(§2) For certain cell lines, multiple IC50 values were taken, and those are separated by commas. Synergy scores are in parentheticals.

Experiment [2] concerns ACCMESO1. The experiment can be described thus: Colony formation (CFU) assay, ACCMESO1. The note with it: ACCMESO1, pleura, CFU ~14 days, wells with DMSO or 300 nM Compound 1, read-out: Chemotherapy nM IC50s. Here is the method: as §1, §2
Experiment [3] concerns HCC1806. The experiment can be described thus: Colony formation (CFU) assay, HCC1806. The following applies: HCC1806, breast; CFU ~14 days; wells with DMSO or 300 nM Compound 1; read-out: Chemotherapy nM IC50s (converted). Here is the method:
as §1, §2

Experiment [4] concerns HCT116. Nature of the experiment: Colony formation (CFU) assay, HCT116. The note with it: HCT116, colon; CFU ~14 days; wells with DMSO or 300 nM Compound 1; read-out: Chemotherapy nM IC50s. The procedure:
as §1, §2

Experiment [5] concerns KALS1. Nature of the experiment: Colony formation (CFU) assay, KALS1. The note with it: KALS1, nervous system; CFU ~14 days; wells with DMSO or 300 nM Compound 1; read-out: Chemotherapy nM IC50s. Here is the method:
as §1, §2

Experiment [6] relates to KU1919. The experiment can be described thus: Colony formation (CFU) assay, KU1919. The note with it: KU1919, bladder; CFU ~14 days; wells with DMSO or 300 nM Compound 1; read-out: Chemotherapy nM IC50s. Here is the method: as §1, §2
The subject of experiment [7] is KYSE270. Nature of the experiment: Colony formation (CFU) assay, KYSE270. The following applies: KYSE270, esophagus; CFU ~14 days; wells with DMSO or 300 nM Compound 1; read-out: Chemotherapy nM IC50s. Here is the method:
as §1, §2

The subject of experiment [8] is KYSE70. The experiment can be described thus: Colony formation (CFU) assay, KYSE70. The following applies: KYSE70, esophagus; CFU ~14 days; wells with DMSO or 300 nM Compound 1; read-out: Chemotherapy nM IC50s. Here is the method: as §1, §2
Experiment [9] has as its system MDAMB231. Nature of the experiment: Colony formation (CFU) assay, MDAMB231. The note with it: MDAMB231, breast; CFU ~14 days; wells with DMSO or 300 nM Compound 1; read-out: Chemotherapy nM IC50s. Here is the method: as §1, §2
The test system of experiment [10] is NCIH596. The experiment can be described thus: Colony formation (CFU) assay, NCIH596. The note with it: NCIH596, lung; CFU ~14 days; wells with DMSO or 300 nM Compound 1; read-out: Chemotherapy nM IC50s. Here is the method: as §1, §2
Experiment [11] relates to SUM149PT. Nature of the experiment: Colony formation (CFU) assay, SUM149PT. The note with it: breast, CFU ~14 days, wells with DMSO or 300 nM Compound 1, read-out: Chemotherapy nM IC50s. Here is the method: as §1, §2
Experiment [12] concerns UMUC3. The experiment can be described thus: Colony formation (CFU) assay, UMUC3. The following applies: UMUC3, bladder; CFU ~14 days; wells with DMSO or 300 nM Compound 1; read-out: Chemotherapy nM IC50s. Here is the method: as §1, §2
The test system of experiment [13] is ASPC1. The experiment can be described thus: Colony formation (CFU) assay, ASPC1. The note with it: ASPC1, pancreas. The procedure:
as §1, §2

In experiment [14] the test system is CAPAN2. Nature of the experiment: Colony formation (CFU) assay, CAPAN2. The following applies: CAPAN2, pancreas, CFU ~14 days, wells with DMSO or 300 nM Compound 1, read-out: Chemotherapy nM IC50s. Here is the method:
as §1, §2

For experiment [15], the system named is COV362. The experiment can be described thus: Colony formation (CFU) assay, COV362. The note with it: COV362, 336 h, read-out: Chemotherapy nM IC50s. Here is the method: as §1, §2
Experiment [16] deals with GSU. The experiment can be described thus: Colony formation (CFU) assay, GSU. The note with it: stomach, chemotherapy agent in combination with 300 nM Compound 1. Here is the method:
as §1, §2

The test system of experiment [17] is HCT15. Nature of the experiment: Colony formation (CFU) assay, HCT15. The following applies: Homo sapiens, HCT-15, 336 h; HCT15, colon; CFU ~14 days; wells with DMSO or 300 nM Compound 1; read-out: Chemotherapy nM IC50s. Here is the method:
as §1, §2

Experiment [18] has as its system HPAC. The experiment can be described thus: Colony formation (CFU) assay, HPAC. The following applies: Homo sapiens, 336 h, pancreas, CFU ~14 days, wells with DMSO or 300 nM Compound 1, read-out: Chemotherapy nM IC50s. The procedure:
as §1, §2

The test system of experiment [19] is OVSAHO. Nature of the experiment: Colony formation (CFU) assay, OVSAHO. The following applies: Homo sapiens, 336 h, ovary, CFU ~14 days, wells with DMSO or 300 nM Compound 1, read-out: Chemotherapy nM IC50s. Here is the method:
as §1, §2

Experiment [20] has as its system SW948. Nature of the experiment: Colony formation (CFU) assay, SW948. The note with it: SW948, colon; for IC50: CFU ~14 days, wells with DMSO or 300 nM Compound 1, read-out: Chemotherapy nM IC50s. The procedure: as §1, §2
For experiment [21], the system named is UWB1289. Nature of the experiment: Colony formation (CFU) assay, UWB1289. The following applies: 336 h; UWB1289, ovary; CFU ~14 days; wells with DMSO or 300 nM Compound 1; read-out: Chemotherapy nM IC50s. Here is the method: as §1, §2
Experiment [22] relates to various cell lines. Nature of the experiment: Colony formation (CFU) assay, summary over cell lines of Table 1. The following applies: combination of USP1 inhibitor (Compound 1, 300 nM) and the chemotherapy agent. Here is the method:
as §1
In certain cell lines, combinations of the disclosure are synergistic. In some aspects, these combinations are determined to have a Bliss score is about 6, about 7, about 8, about 9, about 10, about 11, about 12, about 13, about 14, about 15, about 16, about 17, about 18, about 19, about 20 or about 25.

Experiment [23] concerns A549. The experiment can be described thus: Colony formation (CFU) assay, A549. The note with it: Homo sapiens, 336 h; A549, lung; CFU ~14 days; wells with DMSO or 300 nM Compound 1; read-out: Chemotherapy nM IC50s. Here is the method:
as §1, §2

Experiment [24] has as its system MERO14. Nature of the experiment: Colony formation (CFU) assay, MERO14. The note with it: 336 h, CFU ~14 days, wells with DMSO or 300 nM Compound 1, read-out: Chemotherapy nM IC50s. Here is the method:
as §1, §2

For experiment [25], the system named is MERO83. The experiment can be described thus: Colony formation (CFU) assay, MERO83. The note with it: 336 h, CFU ~14 days, wells with DMSO or 300 nM Compound 1, read-out: Chemotherapy nM IC50s. Here is the method: as §1, §2
The test system of experiment [26] is MSTO211H. Nature of the experiment: Colony formation (CFU) assay, MSTO211H. The following applies: pleura, CFU ~14 days, wells with DMSO or 300 nM Compound 1, read-out: Chemotherapy nM IC50s. Here is the method:
as §1, §2

In experiment [27] the test system is NCIH1915. The experiment can be described thus: Colony formation (CFU) assay, NCIH1915. The following applies: NCI-H1915, 336 h; NCIH1915, lung; CFU ~14 days; wells with DMSO or 300 nM Compound 1; read-out: Chemotherapy nM IC50s. The procedure: as §1, §2
The subject of experiment [28] is NCIH2452. Nature of the experiment: Colony formation (CFU) assay, NCIH2452. The following applies: Homo sapiens, NCI-H2452, 336 h; NCIH2452, pleura; CFU ~14 days; wells with DMSO or 300 nM Compound 1; read-out: Chemotherapy nM IC50s. The procedure: as §1, §2
The mark [29] stands for this setting: chemotherapy agent in combination with 300 nM Compound 1.

In the case of `CO[C@@]12[C@H](COC(N)=O)C3=C(C(=O)C(C)=C(N)C3=O)N1C[C@@H]1N[C@@H]12` [Mito. C, mitomycin C], the IC50 was 15 nM in experiment [1]; 10 nM and 13 nM in [2]; 1 nM and 2 nM and < 1 nM in [3]; 19 nM in [4]; 632 nM in experiment [5]; 16 nM in experiment [6]. The IC50 in experiment [7] is 15 nM and 11 nM; in [8], 14 nM and 12 nM; in [9], 14 nM; in experiment [10], 10 nM; in experiment [11], 5 nM; in [12] it was 18 nM and 12 nM.
Consider `CC[C@@]1(O)C(=O)OCc2c1cc1n(c2=O)Cc2cc3ccccc3nc2-1` [Campto., camptothecin], for which the synergy score in [13] (setting [29]) is reported as −5; in [16] it was 13; in [20] (setting [29]) it was “(−3)”. The IC50 in [13] (Homo sapiens, 336 h, CFU ~14 days, wells with DMSO or 300 nM Compound 1, read-out: Chemotherapy nM IC50s) was determined as 3 nM; in [14] it was 11 nM; in [14] (Homo sapiens, Capan-2, 336 h), 8 nM; in [15], 274 nM; in [17] it was 5 nM; in [18] it was 5 nM. The IC50 in experiment [19] turned out to be 177 nM; in experiment [20] (Homo sapiens, SW948, 336 h) it was 10 nM; in experiment [20], 6 nM; in experiment [21], 18 nM. The “synergy of combination with USP1 inhibitor” value in [22] is “synergy was detected”.
Consider `Nc1nc2[nH]cc(CCc3ccc(C(=O)N[C@@H](CCC(=O)O)C(=O)O)cc3)c2c(=O)[nH]1` [Pemetrex, pemetrexed], for which the IC50 in [23] is 6870 nM; in experiment [2] (ACC-MESO-1, 336 h), 172 nM; in experiment [24], more than 3000 nM; in experiment [25], more than 3000 nM; in experiment [26] (Homo sapiens, MSTO-211H, 336 h) it was 41 nM; in experiment [26], 50 nM. Also, the IC50 worked out at 185 nM in [27] and 48 nM in [28].
